The source of these data is US20150190369A1, “QUERCETIN-3-GLUCOSIDE AND USES THEREOF” (priority 2012, published 2015).

One experiment concerns PCSK9 mRNA. Nature of the experiment: Quantitative RT-PCR for PCSK9 mRNA in Huh7 cells. The format is cell-based, human. The note with it: Huh7, 24 h, highest Q3G concentration tested (0 to 10 μM). The procedure: At passage, Huh7 cells were routinely seeded at sub-confluence (˜10^6 cells/10-cm dish) in Dulbecco's modified Eagle's medium (DMEM) containing 10% fetal bovine serum (FBS) or LPDS (for experiments) and 50 μg/ml gentamycin. They were incubated overnight at 37° C., in a humidified 5% CO2-95% air atmosphere. Cells were treated or not with Q3G at defined concentrations and for defined lengths of time. Media were collected and centrifuged at 200 g for 5 min to sediment suspended cells; supernatants were collected and supplemented with 0.33 volumes of a 3×-concentrated PIC. Cell monolayers were rinsed with ice-cold phosphate-buffered saline (PBS); they were overlaid with […] the RIPA lysis buffer (50 mM Tris-HCl, pH 8, 150 mM NaCl, 1% NP-40, 0.5% Na-deoxycholate and 0.1% SDS) supplemented with 1× PIC. After 20 min in an ice bath, the lysates were centrifuged at 14,000 g and 4° C. for 20 min, and supernatants were collected. Conditioned media and lysates were stored at −20° C. until analysis.
Total RNA was extracted using the Qiagen RNeasy extraction kit. It was reverse transcribed into cDNA using random hexameric primers and the Superscript II RNase H-Reverse Transcriptase. […]
Standard curves were established using varying amounts of purified and quantified cDNA amplicons of each mRNA. […]

In another experiment the test system is SREBP-2. Nature of the experiment: Immunoblotting for SREBP-2-related proteins (proSREBP-2 proteolytic activation) in Huh7 cells. In kind it is cell-based, human. The following applies: Huh7, 24 h, 5 μM Q3G, normalized for β-actin. The procedure:
FIGS. 9A and 9B are graphs illustrating the proSREBPs-2 mRNA and SREBP-2-related protein levels for cells exposed to Q3G. Cells were incubated for 24 h in medium 5 μM Q3G. FIG. 9A illustrates the results for quantitative RT-PCR for proSREBPs-2 mRNA levels. Values are the means of triplicate experiments±SEM. FIG. 9B illustrates the results for semi-quantitative immunoblotting for cellular SREBP-2-related protein. […]
At passage, Huh7 cells were routinely seeded at sub-confluence (˜10^6 cells/10-cm dish) in Dulbecco's modified Eagle's medium (DMEM) containing 10% fetal bovine serum (FBS) or LPDS (for experiments) and 50 μg/ml gentamycin. They were incubated overnight at 37° C., in a humidified 5% CO2-95% air atmosphere. Cells were treated or not with Q3G at defined concentrations and for defined lengths of time. Media were collected and centrifuged at 200 g for 5 min to sediment suspended cells; supernatants were collected and supplemented with 0.33 volumes of a 3×-concentrated PIC. […]
Cell lysates were fractionated by SDS-PAGE and electrophoretically transferred onto a polyvinylidene fluoride membrane. […] The signal was captured on X-ray film and immunoreactive bands analyzed by densitometry on a Syngene's ChemiGenius^2XE Bio Imaging System (Cambridge, Mass.) within the dynamic range of the instrument. […]
In general terms: A western blot detects proteins with antibodies after separation by electrophoresis.

Another experiment concerns Huh7 cells. Put plainly: LDL uptake assay with bodipy-LDL. The format is cell-based, human. The note with it: Huh7, 5 μM Q3G for 24 h. The procedure:
Huh7 cells were seeded in 96-well black-bottom plates at 4×10^4 cells/well in 0.1 ml complete medium and allowed to attach by overnight incubation at 37° C. They were rinsed with PBS-D, overlaid with 0.1 ml of DMEM/10% LPDS and incubated at 37° C. for 24 h. After a PBS-D rinse, they were overlaid with 0.1 ml DMEM/0.5% LPDS containing or not 5 μM Q3G and incubated 37° C. for 24 h. To assay for LDL uptake ability, cells were rinsed, first with pre-warmed (37° C.) PBS-D, then with pre-warmed DMEM/0.5% LPDS. They were overlaid with 75 μl of the latter medium containing […] bodipy-LDL, and then incubated at 37° C. for 15 min or 30 min to allow LDLR-mediated endocytosis of the fluorescent lipoprotein. […] Intracellular fluorescence was measured in a SpectraMax Gemini XS fluorescence plate reader (Molecular Devices) at the excitation and emission wavelengths of 485 and 535 nm, respectively. Non-specific fluorescence was measured by incubating cells in medium containing bodipy-LDL (20 μg/ml) and a 12.5× excess of non-fluorescent LDL (250 μg/ml).
To verify this prediction, cells were incubated overnight in medium supplemented with LPDS to promote expression of the LDLR; they were then treated with 5 μM Q3G for 24 h and exposed to fluorescent bodipy-LDL for 15 or 30 min; after washing, accumulated intracellular LDL was measured by fluorescence spectrometry.

The subject of another experiment is HNF-1α. Put plainly: Immunoblotting for HNF-1α in cells exposed to Q3G. The format is cell-based. The note with it: cells incubated 24 h with Q3G. The procedure:
FIG. 3 is a graph illustrating hepatocyte nuclear factor la (HNF-1α) expression in cells on exposure to Q3G. Cells were incubated for 24 h in medium containing the indicated concentrations of Q3G. Cells lysates were analyzed by semi-quantitative immunoblotting for the levels of HNF-1α.
Cell lysates were fractionated by SDS-PAGE and electrophoretically transferred onto a polyvinylidene fluoride membrane. The membrane was incubated with a goat antihuman LDLR, rabbit anti-PCSK9, or rabbit anti-SREBP-2 polyclonal antibody at 1:1000, 1:1500, and 1:200 dilutions, respectively, and then with a HRP-conjugated heterospecific secondary antibody against the primary Igs at a 1:2000 dilution. It was probed for HRP reaction using the Western Lightning Chemiluminescence Reagent Plus a chemiluminescence-based revelation kit. The signal was captured on X-ray film and immunoreactive bands analyzed by densitometry on a Syngene's ChemiGenius^2XE Bio Imaging System (Cambridge, Mass.) within the dynamic range of the instrument. The membrane was stripped and reprobed with the anti-β-actin monoclonal primary antibody at 1:20,000 dilution and HRP-conjugated rabbit anti-mouse IgG secondary antibody at a 1:5000 dilution. The densitometric values of β-actin bands were using for normalization of experimental samples.

In the case of `O=c1c(O[C@@H]2O[C@H](CO)[C@@H](O)[C@H](O)[C@H]2O)c(-c2ccc(O)c(O)c2)oc2cc(O)cc(O)c12` [Q3G, quercetin-3-O-β-D-glucoside], the “decrease of PCSK9 mRNA levels” value in the experiment on PCSK9 mRNA is recorded as “one-third”. Besides, in the experiment with SREBP-2, the “increase of ratio of 65-kDa nuclear SREBP-2 over its 148-kDa ER precursor” value is “up to 4 fold”. Also, the “accumulated intracellular LDL versus untreated cells” value worked out at 4 fold in the experiment with Huh7 cells (bodipy-LDL for 15 min) and 2.5 fold in the experiment on Huh7 cells (bodipy-LDL for 30 min). Besides, the “level of HNF-1α” value with HNF-1α is “does not change”.
